tested on: CCRF-CEM; experiment: Antiproliferative activity against human CCRF-CEM cells assessed as cell growth at 10^-5 M after 48 hrs by sulforhodamine B assay; assay type: functional; conditions: read-out: Activity

Compound	growth at 10 µM [%]
CNC(=O)c1cc(Oc2ccc3nc(NC(=O)c4cccc(F)n4)sc3c2)ccn1	64.7
CNC(=O)c1cc(Oc2ccc3nc(NC(=O)c4ccc(Cl)c(C(F)(F)F)c4)sc3c2)ccn1	68.4

tested on: not listed separately; experiment: Antiproliferative activity against human MOLT4 cells assessed as cell growth at 10^-5 M after 48 hrs by sulforhodamine B assay; assay type: functional; conditions: MOLT-4, 48 h, read-out: Activity

Compound	growth at 10 µM [%]
CNC(=O)c1cc(Oc2ccc3nc(NC(=O)c4cccc(F)n4)sc3c2)ccn1	80.8
CNC(=O)c1cc(Oc2ccc3nc(NC(=O)c4ccc(Cl)c(C(F)(F)F)c4)sc3c2)ccn1	67.3

tested on: SR; experiment: Antiproliferative activity against human SR cells assessed as cell growth at 10^-5 M after 48 hrs by sulforhodamine B assay; assay type: functional; conditions: read-out: Activity

Compound	growth at 10 µM [%]
CNC(=O)c1cc(Oc2ccc3nc(NC(=O)c4cccc(F)n4)sc3c2)ccn1	55.9
CNC(=O)c1cc(Oc2ccc3nc(NC(=O)c4ccc(Cl)c(C(F)(F)F)c4)sc3c2)ccn1	37.6

tested on: A549; experiment: Antiproliferative activity against human A549/ATCC cells assessed as cell growth at 10^-5 M after 48 hrs by sulforhodamine B assay; assay type: functional; conditions: A549, 48 h, read-out: Activity

Compound	growth at 10 µM [%]
CNC(=O)c1cc(Oc2ccc3nc(NC(=O)c4cccc(F)n4)sc3c2)ccn1	75.2
CNC(=O)c1cc(Oc2ccc3nc(NC(=O)c4ccc(Cl)c(C(F)(F)F)c4)sc3c2)ccn1	71.7

tested on: EKVX; experiment: Antiproliferative activity against human EKVX cells assessed as cell growth at 10^-5 M after 48 hrs by sulforhodamine B assay; assay type: functional; conditions: read-out: Activity

Compound	growth at 10 µM [%]
CNC(=O)c1cc(Oc2ccc3nc(NC(=O)c4cccc(F)n4)sc3c2)ccn1	90
CNC(=O)c1cc(Oc2ccc3nc(NC(=O)c4ccc(Cl)c(C(F)(F)F)c4)sc3c2)ccn1	78.8

tested on: NCI-H226; experiment: Antiproliferative activity against human NCI-H226 cells assessed as cell growth at 10^-5 M after 48 hrs by sulforhodamine B assay; assay type: functional; conditions: NCI-H226, 48 h, read-out: Activity

Compound	growth at 10 µM [%]
CNC(=O)c1cc(Oc2ccc3nc(NC(=O)c4cccc(F)n4)sc3c2)ccn1	76.3
CNC(=O)c1cc(Oc2ccc3nc(NC(=O)c4ccc(Cl)c(C(F)(F)F)c4)sc3c2)ccn1	93.4

tested on: NCI-H23; experiment: Antiproliferative activity against human NCI-H23 cells assessed as cell growth at 10^-5 M after 48 hrs by sulforhodamine B assay; assay type: functional; conditions: NCI-H23, 48 h, read-out: Activity

Compound	growth at 10 µM [%]
CNC(=O)c1cc(Oc2ccc3nc(NC(=O)c4cccc(F)n4)sc3c2)ccn1	83
CNC(=O)c1cc(Oc2ccc3nc(NC(=O)c4ccc(Cl)c(C(F)(F)F)c4)sc3c2)ccn1	69.1

tested on: NCI-H460; experiment: Antiproliferative activity against human NCI-H460 cells assessed as cell growth at 10^-5 M after 48 hrs by sulforhodamine B assay; assay type: functional; conditions: NCI-H460, 48 h, read-out: Activity

Compound	growth at 10 µM [%]
CNC(=O)c1cc(Oc2ccc3nc(NC(=O)c4cccc(F)n4)sc3c2)ccn1	89.5
CNC(=O)c1cc(Oc2ccc3nc(NC(=O)c4ccc(Cl)c(C(F)(F)F)c4)sc3c2)ccn1	56.4

tested on: not listed separately; experiment: Antiproliferative activity against human SF295 cells assessed as cell growth at 10^-5 M after 48 hrs by sulforhodamine B assay; assay type: functional; conditions: SF-295, 48 h, read-out: Activity

Compound	growth at 10 µM [%]
CNC(=O)c1cc(Oc2ccc3nc(NC(=O)c4cccc(F)n4)sc3c2)ccn1	89.1
CNC(=O)c1cc(Oc2ccc3nc(NC(=O)c4ccc(Cl)c(C(F)(F)F)c4)sc3c2)ccn1	78.3

tested on: not listed separately; experiment: Antiproliferative activity against human SNB75 cells assessed as cell growth at 10^-5 M after 48 hrs by sulforhodamine B assay; assay type: functional; conditions: SNB-75, 48 h, read-out: Activity

Compound	growth at 10 µM [%]
CNC(=O)c1cc(Oc2ccc3nc(NC(=O)c4cccc(F)n4)sc3c2)ccn1	105
CNC(=O)c1cc(Oc2ccc3nc(NC(=O)c4ccc(Cl)c(C(F)(F)F)c4)sc3c2)ccn1	39

tested on: U-251; experiment: Antiproliferative activity against human U251 cells assessed as cell growth at 10^-5 M after 48 hrs by sulforhodamine B assay; assay type: functional; conditions: U-251, 48 h, read-out: Activity

Compound	growth at 10 µM [%]
CNC(=O)c1cc(Oc2ccc3nc(NC(=O)c4cccc(F)n4)sc3c2)ccn1	79.9
CNC(=O)c1cc(Oc2ccc3nc(NC(=O)c4ccc(Cl)c(C(F)(F)F)c4)sc3c2)ccn1	59.2

tested on: M14; experiment: Antiproliferative activity against human M14 cells assessed as cell growth at 10^-5 M after 48 hrs by sulforhodamine B assay; assay type: functional; conditions: M14, 48 h, read-out: Activity

Compound	growth at 10 µM [%]
CNC(=O)c1cc(Oc2ccc3nc(NC(=O)c4cccc(F)n4)sc3c2)ccn1	91.8
CNC(=O)c1cc(Oc2ccc3nc(NC(=O)c4ccc(Cl)c(C(F)(F)F)c4)sc3c2)ccn1	89.9

tested on: SK-MEL-5; experiment: Antiproliferative activity against human SK-MEL-5 cells assessed as cell growth at 10^-5 M after 48 hrs by sulforhodamine B assay; assay type: functional; conditions: SK-MEL-5, 48 h, read-out: Activity

Compound	growth at 10 µM [%]
CNC(=O)c1cc(Oc2ccc3nc(NC(=O)c4cccc(F)n4)sc3c2)ccn1	71.8
CNC(=O)c1cc(Oc2ccc3nc(NC(=O)c4ccc(Cl)c(C(F)(F)F)c4)sc3c2)ccn1	70.9

tested on: not listed separately; experiment: Antiproliferative activity against human UACC257 cells assessed as cell growth at 10^-5 M after 48 hrs by sulforhodamine B assay; assay type: functional; conditions: UACC-257, 48 h, read-out: Activity

Compound	growth at 10 µM [%]
CNC(=O)c1cc(Oc2ccc3nc(NC(=O)c4cccc(F)n4)sc3c2)ccn1	80.3
CNC(=O)c1cc(Oc2ccc3nc(NC(=O)c4ccc(Cl)c(C(F)(F)F)c4)sc3c2)ccn1	75.3

tested on: not listed separately; experiment: Antiproliferative activity against human IGROV1 cells assessed as cell growth at 10^-5 M after 48 hrs by sulforhodamine B assay; assay type: functional; conditions: IGROV-1, 48 h, read-out: Activity

Compound	growth at 10 µM [%]
CNC(=O)c1cc(Oc2ccc3nc(NC(=O)c4cccc(F)n4)sc3c2)ccn1	101
CNC(=O)c1cc(Oc2ccc3nc(NC(=O)c4ccc(Cl)c(C(F)(F)F)c4)sc3c2)ccn1	85.8

tested on: not listed separately; experiment: Antiproliferative activity against human OVCAR3 cells assessed as cell growth at 10^-5 M after 48 hrs by sulforhodamine B assay; assay type: functional; conditions: OVCAR-3, 48 h, read-out: Activity

Compound	growth at 10 µM [%]
CNC(=O)c1cc(Oc2ccc3nc(NC(=O)c4cccc(F)n4)sc3c2)ccn1	95.5
CNC(=O)c1cc(Oc2ccc3nc(NC(=O)c4ccc(Cl)c(C(F)(F)F)c4)sc3c2)ccn1	66.4

tested on: not listed separately; experiment: Antiproliferative activity against human OVCAR5 cells assessed as cell growth at 10^-5 M after 48 hrs by sulforhodamine B assay; assay type: functional; conditions: OVCAR-5, 48 h, read-out: Activity

Compound	growth at 10 µM [%]
CNC(=O)c1cc(Oc2ccc3nc(NC(=O)c4cccc(F)n4)sc3c2)ccn1	128
CNC(=O)c1cc(Oc2ccc3nc(NC(=O)c4ccc(Cl)c(C(F)(F)F)c4)sc3c2)ccn1	93.3

tested on: not listed separately; experiment: Antiproliferative activity against human NCI-ADR-RES cells assessed as cell growth at 10^-5 M after 48 hrs by sulforhodamine B assay; assay type: functional; conditions: read-out: Activity

Compound	growth at 10 µM [%]
CNC(=O)c1cc(Oc2ccc3nc(NC(=O)c4cccc(F)n4)sc3c2)ccn1	88.8
CNC(=O)c1cc(Oc2ccc3nc(NC(=O)c4ccc(Cl)c(C(F)(F)F)c4)sc3c2)ccn1	64.9

tested on: not listed separately; experiment: Antiproliferative activity against human SKOV3 cells assessed as cell growth at 10^-5 M after 48 hrs by sulforhodamine B assay; assay type: functional; conditions: SK-OV-3, 48 h, read-out: Activity

Compound	growth at 10 µM [%]
CNC(=O)c1cc(Oc2ccc3nc(NC(=O)c4cccc(F)n4)sc3c2)ccn1	116
CNC(=O)c1cc(Oc2ccc3nc(NC(=O)c4ccc(Cl)c(C(F)(F)F)c4)sc3c2)ccn1	85.3

tested on: 786-0; experiment: Antiproliferative activity against human 786-0 cells assessed as cell growth at 10^-5 M after 48 hrs by sulforhodamine B assay; assay type: functional; conditions: 786-0, 48 h, read-out: Activity

Compound	growth at 10 µM [%]
CNC(=O)c1cc(Oc2ccc3nc(NC(=O)c4cccc(F)n4)sc3c2)ccn1	86

tested on: ACHN; experiment: Antiproliferative activity against human ACHN cells assessed as cell growth at 10^-5 M after 48 hrs by sulforhodamine B assay; assay type: functional; conditions: read-out: Activity

Compound	growth at 10 µM [%]
CNC(=O)c1cc(Oc2ccc3nc(NC(=O)c4cccc(F)n4)sc3c2)ccn1	94.5
CNC(=O)c1cc(Oc2ccc3nc(NC(=O)c4ccc(Cl)c(C(F)(F)F)c4)sc3c2)ccn1	60.6

tested on: not listed separately; experiment: Antiproliferative activity against human RXF393 cells assessed as cell growth at 10^-5 M after 48 hrs by sulforhodamine B assay; assay type: functional; conditions: RXF 393, 48 h, read-out: Activity

Compound	growth at 10 µM [%]
CNC(=O)c1cc(Oc2ccc3nc(NC(=O)c4cccc(F)n4)sc3c2)ccn1	101
CNC(=O)c1cc(Oc2ccc3nc(NC(=O)c4ccc(Cl)c(C(F)(F)F)c4)sc3c2)ccn1	47.9

tested on: SN12C; experiment: Antiproliferative activity against human SN12C cells assessed as cell growth at 10^-5 M after 48 hrs by sulforhodamine B assay; assay type: functional; conditions: read-out: Activity

Compound	growth at 10 µM [%]
CNC(=O)c1cc(Oc2ccc3nc(NC(=O)c4cccc(F)n4)sc3c2)ccn1	84.9
CNC(=O)c1cc(Oc2ccc3nc(NC(=O)c4ccc(Cl)c(C(F)(F)F)c4)sc3c2)ccn1	75.6

tested on: not listed separately; experiment: Antiproliferative activity against human TK10 cells assessed as cell growth at 10^-5 M after 48 hrs by sulforhodamine B assay; assay type: functional; conditions: TK-10, 48 h, read-out: Activity

Compound	growth at 10 µM [%]
CNC(=O)c1cc(Oc2ccc3nc(NC(=O)c4cccc(F)n4)sc3c2)ccn1	133
CNC(=O)c1cc(Oc2ccc3nc(NC(=O)c4ccc(Cl)c(C(F)(F)F)c4)sc3c2)ccn1	92.8

tested on: not listed separately; experiment: Antiproliferative activity against human PC3 cells assessed as cell growth at 10^-5 M after 48 hrs by sulforhodamine B assay; assay type: functional; conditions: PC-3, 48 h, read-out: Activity

Compound	growth at 10 µM [%]
CNC(=O)c1cc(Oc2ccc3nc(NC(=O)c4cccc(F)n4)sc3c2)ccn1	73
CNC(=O)c1cc(Oc2ccc3nc(NC(=O)c4ccc(Cl)c(C(F)(F)F)c4)sc3c2)ccn1	62.7

tested on: MCF7; experiment: Antiproliferative activity against human MCF7 cells assessed as cell growth at 10^-5 M after 48 hrs by sulforhodamine B assay; assay type: functional; conditions: MCF7, 48 h, read-out: Activity

Compound	growth at 10 µM [%]
CNC(=O)c1cc(Oc2ccc3nc(NC(=O)c4cccc(F)n4)sc3c2)ccn1	86.3
CNC(=O)c1cc(Oc2ccc3nc(NC(=O)c4ccc(Cl)c(C(F)(F)F)c4)sc3c2)ccn1	64.1

tested on: MDA-MB-231; experiment: Antiproliferative activity against human MDA-MB-231 cells assessed as cell growth at 10^-5 M after 48 hrs by sulforhodamine B assay; assay type: functional; conditions: MDA-MB-231, 48 h, read-out: Activity

Compound	growth at 10 µM [%]
CNC(=O)c1cc(Oc2ccc3nc(NC(=O)c4cccc(F)n4)sc3c2)ccn1	86
CNC(=O)c1cc(Oc2ccc3nc(NC(=O)c4ccc(Cl)c(C(F)(F)F)c4)sc3c2)ccn1	75.3
